# Reference: patent US20260232767A1, “INTERLEUKIN-23 RECEPTOR ANTAGONIST PEPTIDES FOR USE IN THE TREATMENT OF PSORIASIS” (Janssen Pharmaceutica NV, priority 2023, published 2026)
# Test system: subjects with moderate-to-severe plaque psoriasis
# Assay: Safety, adverse events, Example 2 through Week 56
# Assay type: in vivo, human
# Details: through Week 56
# Description: The LTE safety analysis was based on randomized participants in Example who entered the present long-term extension study and received at least one dose of study intervention (including a partial dose) during the study period.
# [1] = Placebo → 100 mg QD after crossover
smiles,measurement,setting,value
"CC(=O)NCCCC[C@@H]1NC(=O)[C@H](Cc2c[nH]c3c(C)cccc23)NC(=O)[C@H]([C@@H](C)O)NC(=O)[C@H](CC(N)=O)NC(=O)[C@@H](NC(C)=O)C(C)(C)SSC(C)(C)[C@@H](C(=O)N[C@@H](Cc2ccc(OCCN)cc2)C(=O)N[C@@H](Cc2ccc3ccccc3c2)C(=O)NC2(C(=O)N[C@@H](CCC(=O)O)C(=O)N[C@@H](CC(N)=O)C(=O)N[C@@H](Cc3cccnc3)C(=O)N(C)CC(N)=O)CCOCC2)NC1=O [IL-23 receptor antagonist peptide, Ac-[Pen]*-N-T-[W(7-Me)]-[Lys(Ac)]-[Pen]*-Phe[4-(2-aminoethoxy)]-[2-Nal]-[THP]-E-N-[3-Pal]-Sarc-NH2 (*[Pen]-[Pen]* formdisulfidebond)]",Subjects with Mouth ulceration,,0
same,Subjects with Tendonitis,,0
same,Subjects with 1 or more Adverse events,25 mg BID,(78.0%)
same,Subjects with 1 or more Adverse events: Alanine aminotransferase increased,25 mg BID,(2.4%)
same,Subjects with 1 or more Adverse events: Aspartate aminotransferase increased,25 mg BID,(2.4%)
same,Subjects with 1 or more Adverse events: Bronchitis,25 mg BID,(4.9%)
same,Subjects with 1 or more Adverse events: COVID-19,25 mg BID,(22.0%)
same,Subjects with 1 or more Adverse events: Diarrhea,25 mg BID,(4.9%)
same,Subjects with 1 or more Adverse events: Headache,25 mg BID,(7.3%)
same,Subjects with 1 or more Adverse events: Influenza,25 mg BID,(7.3%)
same,Subjects with 1 or more Adverse events: Nasopharyngitis,25 mg BID,(19.5%)
same,Subjects with 1 or more Adverse events: Upper respiratory tract infection,25 mg BID,(7.3%)
same,Subjects with 1 or more Adverse events: Urinary tract infection,25 mg BID,(2.4%)
same,Subjects with 1 or more Serious adverse events,25 mg BID,(7.3%)
same,Subjects with 1 or more Serious adverse events: Ligament injury,25 mg BID,(2.4%)
same,Subjects with 1 or more Serious adverse events: Tonsillar hypertrophy,25 mg BID,(2.4%)
same,Subjects with 1 or more Serious adverse events: Ventricular dysfunction,25 mg BID,(2.4%)
same,Subjects with 1 or more treatment-emergent adverse events leading to discontinuation of study agent,25 mg BID,(4.9%)
same,Subjects with 1 or more Adverse events,25 mg QD,(55.8%)
same,Subjects with 1 or more Adverse events: Alanine aminotransferase increased,25 mg QD,(2.3%)
same,Subjects with 1 or more Adverse events: Arthralgia,25 mg QD,(2.3%)
same,Subjects with 1 or more Adverse events: Aspartate aminotransferase increased,25 mg QD,(2.3%)
same,Subjects with 1 or more Adverse events: Bronchitis,25 mg QD,(4.7%)
same,Subjects with 1 or more Adverse events: COVID-19,25 mg QD,(14.0%)
same,Subjects with 1 or more Adverse events: Cough,25 mg QD,(2.3%)
same,Subjects with 1 or more Adverse events: Diarrhea,25 mg QD,(4.7%)
same,Subjects with 1 or more Adverse events: Headache,25 mg QD,(4.7%)
same,Subjects with 1 or more Adverse events: Nasopharyngitis,25 mg QD,(7.0%)
same,Subjects with 1 or more Adverse events: Upper respiratory tract infection,25 mg QD,(16.3%)
same,Subjects with 1 or more Adverse events: Urinary tract infection,25 mg QD,(4.7%)
same,Subjects with 1 or more treatment-emergent adverse events leading to discontinuation of study agent,25 mg QD,(7.0%)
same,Subjects with 1 or more Adverse events,50 mg QD,(74.4%)
same,Subjects with 1 or more Adverse events: Alanine aminotransferase increased,50 mg QD,(2.3%)
same,Subjects with 1 or more Adverse events: Arthralgia,50 mg QD,(2.3%)
same,Subjects with 1 or more Adverse events: Aspartate aminotransferase increased,50 mg QD,(2.3%)
same,Subjects with 1 or more Adverse events: Bronchitis,50 mg QD,(9.3%)
same,Subjects with 1 or more Adverse events: COVID-19,50 mg QD,(14.0%)
same,Subjects with 1 or more Adverse events: Cough,50 mg QD,(4.7%)
same,Subjects with 1 or more Adverse events: Diarrhea,50 mg QD,(9.3%)
same,Subjects with 1 or more Adverse events: Headache,50 mg QD,(2.3%)
same,Subjects with 1 or more Adverse events: Influenza,50 mg QD,(2.3%)
same,Subjects with 1 or more Adverse events: Nasopharyngitis,50 mg QD,(30.2%)
same,Subjects with 1 or more Adverse events: Upper respiratory tract infection,50 mg QD,(7.0%)
same,Subjects with 1 or more Adverse events: Urinary tract infection,50 mg QD,(2.3%)
same,Subjects with 1 or more Serious adverse events,50 mg QD,(7.0%)
same,Subjects with 1 or more Serious adverse events: Coronary artery disease,50 mg QD,(2.3%)
same,Subjects with 1 or more Serious adverse events: Foot deformity,50 mg QD,(2.3%)
same,Subjects with 1 or more Serious adverse events: Infected cyst,50 mg QD,(2.3%)
same,Subjects with 1 or more Serious adverse events: Non-cardiac chest pain,50 mg QD,(2.3%)
same,Subjects with 1 or more treatment-emergent adverse events leading to discontinuation of study agent,50 mg QD,(4.7%)
same,Subjects with 1 or more Adverse events,100 mg BID,(76.2%)
same,Subjects with 1 or more Adverse events: Alanine aminotransferase increased,100 mg BID,(9.5%)
same,Subjects with 1 or more Adverse events: Arthralgia,100 mg BID,(4.8%)
same,Subjects with 1 or more Adverse events: Aspartate aminotransferase increased,100 mg BID,(7.1%)
same,Subjects with 1 or more Adverse events: COVID-19,100 mg BID,(16.7%)
same,Subjects with 1 or more Adverse events: Cough,100 mg BID,(4.8%)
same,Subjects with 1 or more Adverse events: Diarrhea,100 mg BID,(2.4%)
same,Subjects with 1 or more Adverse events: Headache,100 mg BID,(2.4%)
same,Subjects with 1 or more Adverse events: Influenza,100 mg BID,(2.4%)
same,Subjects with 1 or more Adverse events: Nasopharyngitis,100 mg BID,(11.9%)
same,Subjects with 1 or more Adverse events: Upper respiratory tract infection,100 mg BID,(11.9%)
same,Subjects with 1 or more Adverse events: Urinary tract infection,100 mg BID,(4.8%)
same,Subjects with 1 or more Serious adverse events,100 mg BID,(2.4%)
same,Subjects with 1 or more Serious adverse events: Uterine leiomyoma,100 mg BID,(2.4%)
same,Subjects with 1 or more treatment-emergent adverse events leading to discontinuation of study agent,100 mg BID,(2.4%)
same,Subjects with 1 or more Adverse events,100 mg QD,(72.1%)
same,Subjects with 1 or more Adverse events: Arthralgia,100 mg QD,(7.0%)
same,Subjects with 1 or more Adverse events: COVID-19,100 mg QD,(11.6%)
same,Subjects with 1 or more Adverse events: Cough,100 mg QD,(7.0%)
same,Subjects with 1 or more Adverse events: Diarrhea,100 mg QD,(2.3%)
same,Subjects with 1 or more Adverse events: Headache,100 mg QD,(11.6%)
same,Subjects with 1 or more Adverse events: Influenza,100 mg QD,(2.3%)
same,Subjects with 1 or more Adverse events: Nasopharyngitis,100 mg QD,(25.6%)
same,Subjects with 1 or more Adverse events: Upper respiratory tract infection,100 mg QD,(4.7%)
same,Subjects with 1 or more Serious adverse events,100 mg QD,(7.0%)
same,Subjects with 1 or more Serious adverse events: COVID-19,100 mg QD,(2.3%)
same,Subjects with 1 or more Serious adverse events: Diverticulitis,100 mg QD,(2.3%)
same,Subjects with 1 or more Serious adverse events: Intervertebral disc protrusion,100 mg QD,(2.3%)
same,Subjects with 1 or more Serious adverse events: Suicide attempt,100 mg QD,(2.3%)
same,Subjects with 1 or more treatment-emergent adverse events leading to discontinuation of study agent,100 mg QD,(4.7%)
same,Subjects with 1 or more Adverse events,Combined,(70.4%)
same,Subjects with 1 or more Adverse events: Alanine aminotransferase increased,Combined,(3.6%)
same,Subjects with 1 or more Adverse events: Arthralgia,Combined,(3.2%)
same,Subjects with 1 or more Adverse events: Aspartate aminotransferase increased,Combined,(2.8%)
same,Subjects with 1 or more Adverse events: Bronchitis,Combined,(3.6%)
same,Subjects with 1 or more Adverse events: COVID-19,Combined,(14.2%)
same,Subjects with 1 or more Adverse events: Cough,Combined,(3.2%)
same,Subjects with 1 or more Adverse events: Diarrhea,Combined,(4.5%)
same,Subjects with 1 or more Adverse events: Headache,Combined,(4.9%)
same,Subjects with 1 or more Adverse events: Influenza,Combined,(2.8%)
same,Subjects with 1 or more Adverse events: Nasopharyngitis,Combined,(19.8%)
same,Subjects with 1 or more Adverse events: Upper respiratory tract infection,Combined,(9.7%)
same,Subjects with 1 or more Adverse events: Urinary tract infection,Combined,(3.2%)
same,Subjects with 1 or more Serious adverse events,Combined,(4.5%)
same,Subjects with 1 or more Serious adverse events: COVID-19,Combined,(0.4%)
same,Subjects with 1 or more Serious adverse events: Cerebrovascular accident,Combined,(0.4%)
same,Subjects with 1 or more Serious adverse events: Coronary artery disease,Combined,(0.4%)
same,Subjects with 1 or more Serious adverse events: Diverticulitis,Combined,(0.4%)
same,Subjects with 1 or more Serious adverse events: Foot deformity,Combined,(0.4%)
same,Subjects with 1 or more Serious adverse events: Infected cyst,Combined,(0.4%)
same,Subjects with 1 or more Serious adverse events: Intervertebral disc protrusion,Combined,(0.4%)
same,Subjects with 1 or more Serious adverse events: Ligament injury,Combined,(0.4%)
same,Subjects with 1 or more Serious adverse events: Non-cardiac chest pain,Combined,(0.4%)
same,Subjects with 1 or more Serious adverse events: Suicide attempt,Combined,(0.4%)
same,Subjects with 1 or more Serious adverse events: Tonsillar hypertrophy,Combined,(0.4%)
same,Subjects with 1 or more Serious adverse events: Uterine leiomyoma,Combined,(0.4%)
same,Subjects with 1 or more Serious adverse events: Ventricular dysfunction,Combined,(0.4%)
same,Subjects with 1 or more treatment-emergent adverse events leading to discontinuation of study agent,Combined,(4.0%)
same,Subjects with 1 or more Adverse events,[1],(65.7%)
same,Subjects with 1 or more Adverse events: Alanine aminotransferase increased,[1],(5.7%)
same,Subjects with 1 or more Adverse events: Arthralgia,[1],(2.9%)
same,Subjects with 1 or more Adverse events: Aspartate aminotransferase increased,[1],(2.9%)
same,Subjects with 1 or more Adverse events: Bronchitis,[1],(2.9%)
same,Subjects with 1 or more Adverse events: COVID-19,[1],(5.7%)
same,Subjects with 1 or more Adverse events: Diarrhea,[1],(2.9%)
same,Subjects with 1 or more Adverse events: Influenza,[1],(2.9%)
same,Subjects with 1 or more Adverse events: Nasopharyngitis,[1],(25.7%)
same,Subjects with 1 or more Adverse events: Upper respiratory tract infection,[1],(11.4%)
same,Subjects with 1 or more Adverse events: Urinary tract infection,[1],(5.7%)
same,Subjects with 1 or more Serious adverse events,[1],(2.9%)
same,Subjects with 1 or more Serious adverse events: Cerebrovascular accident,[1],(2.9%)
